Patent US20110212954A1, “ALPHA-LIPOIC ACID DERIVATIVES AND THEIR USE IN DRUG PREPARATION” (priority 2008, published 2011)
Blank lines part the entries; values can stand above or below the compound they belong to.

Experiments:
[1] = Pharmacokinetic study in rats after oral administration of a single dose, HPLC-MS of plasma; format: in vivo; conditions: rat
Experimental: The bioavailability of some compounds synthesized (Examples 1a, 2, 2a, 3, 3a, 10, 15a, 16a and 24) was studied in rats after oral administration of a single dose (48.5 μmol/kg) and compared with the reference (R)- or (RS)-α-LA.
Each treatment was carried out on groups of 6 male rats (Sprague-Dawley SD rat) per compound. At regular times, blood withdrawals were carried out for the measurement by HPLC-MS of the concentration of plasmatic α-LA (FIGS. 5, 7, 9) and of the residual compound administered (FIGS. 6, 8).

HepG2 cells [2] = assay: Variation in NADH levels (total NADH/NAD ratio), spectrophotometric kit; format: cell-based, human; conditions: 5 μM, 72 hours
Text: (§1) Although it is known that under hyperglycemic conditions α-LA induces AMPK activation in hepatic cells, the molecular mechanisms responsible for this biochemical process are not yet known. As envisaged in the description, the inventors of the present invention have advanced the hypothesis that AMPK activation by α-LA is the result of changes in the amount of NADH and NADHP present in cells, due to the interference of α-LA and/or its analogous derivatives in the oxidation-reduction processes. To verify this hypothesis, use was made of commercial kits (by Valter Occhiena) able to analyze the variations in the cellular amounts of NAD(P)H relative to total NAD(P), in the presence of increasing concentrations of the compounds under analysis (total NAD=NADH+NAD^+; total NADP=NADPH+NADP^+).

HepG2 cells [3] = assay: Variation in NADPH levels (total NADPH/NADP ratio), spectrophotometric kit; format: cell-based, human; conditions: HepG2 cells, 5, 10, 100 and 500 μM, 72 hours
Text: as §1

[4] = tested on: protein pool extracted from murine liver; assay: In vitro enzyme hydrolysis assay, thin-layer chromatography detection; format: in vitro ADME, mouse; conditions: 1 mg murine liver protein extract, 50 μg compound, 25° C.
Experimental: In view of what found from the results of Example 29, an in vitro enzyme hydrolysis assay was carried out with the aim of further clarifying which of the synthesized derivatives behaved as alpha-lipoic acid precursors, i.e. as prodrugs able to release alpha-lipoic acid by hydrolysis.
A protein pool extracted from murine liver, containing enzymes able to promote hydrolysis of the compounds of the invention, was used to reintroduce in vitro the hydrolytic activity previously described in the pharmacokinetic studies.
Methodology • The liver of a wild-type mouse was removed; excess blood was removed by washing in phosphate buffer saline (PBS); • Said liver was transferred into a homogenizer with a sufficient amount of lysis buffer (50 mM Tris HCl pH 7.5-8.0; 150 mM NaCl; 5 mM EGTA pH 7.5-8.0; 50 mM NaF pH 8.0; 10% (v/v) glycerol; 1.5 mM MgCl2, 1% Triton X-100) enriched with protease and phosphatase inhibitors (Protease Inhibitor Cocktail; Sigma-Aldrich). 15-20 impacts were applied by the pestle in order to obtain a homogeneous solution; • The entire mixture was left under agitation at +4° C. for 1 hour; after centrifugation at 14000 rpm, the supernatant containing the extracted proteins was recovered; • The amount of extracted protein was determined using the Bradford assay; • The enzymatic hydrolysis reaction was carried out: 1 mg of protein extract for hydrolysing 50 μg of synthesized compound (dissolved in DMSO); 1, 3 or 24 hours at 25° C. under agitation; • The digestion product(s) was/were detected using thin-layer chromatography: mobile phase (60:40:1 of ethyl acetate; n-hexane; acetic acid); silica plate (Sigma-Aldrich); phosphomolybdic reagent; • The digestion products were analyzed and compared with (R)-α-LA (Sigma-Aldrich), and with the non-hydrolysed compound of the invention.
It was, therefore, possible to detect (R)-alpha-lipoic acid as the hydrolysis product and to differentiate it from the enantiomers of the invention.

amount of (R)-alpha-lipoic acid released after 24 h (FIG. 3) [4]: reduced release | enzymatic hydrolysis after 24 h (FIG. 3) [4]: partial hydrolization
Compound: O=C(CCCC[C@@H]1CCSS1)NCCc1ccccc1 [Example 11, (R)-5-[1,2]dithiolan-3-yl-pentanoic acid phenethyl-amide]

enzymatic hydrolysis after 1 h (FIG. 2) [4]: completely hydrolyzed
Compound: CC(C)(C)C(=O)OCOC(=O)CCCC[C@@H]1CCSS1 [Example 15, (R)-5-[1,2]dithiolan-3-yl-pentanoic acid 2,2-dimethyl-propionyloxymethyl ester]

amount of (R)-alpha-lipoic acid released after 24 h (FIG. 3) [4]: very considerable amount | enzymatic hydrolysis after 24 h (FIG. 3) [4]: not completely hydrolysed
Compound: O=C(CCCC[C@@H]1CCSS1)NCc1ccccc1 [Example 22, (R)-5-[1,2]dithiolan-3-yl-pentanoic acid N-benzylamide]

enzymatic hydrolysis after 1 h (FIG. 2) [4]: completely hydrolyzed
Compound: CCCC(=O)OCOC(=O)CCCC[C@@H]1CCSS1 [Example 16, (R)-5-[1,2]dithiolan-3-yl-pentanoic acid butyryloxymethyl ester]

amount of (R)-alpha-lipoic acid released after 24 h (FIG. 3) [4]: reduced release | enzymatic hydrolysis after 24 h (FIG. 3) [4]: partial hydrolization
Compound: O=C(CCCC[C@@H]1CCSS1)NC1CCCC1 [Example 14, (R)-5-[1,2]dithiolan-3-yl-pentanoic acid cyclopentylamide]

enzymatic hydrolysis after 1 h (FIG. 2) [4]: partial hydrolization | enzymatic hydrolysis after 3 h (FIG. 2) [4]: completely hydrolyzed
Compound: CC(OC(=O)CCCC[C@@H]1CCSS1)OC(=O)C(C)(C)C (stereo partly drawn) [Example 18, (R)-5-[1,2]dithiolan-3-yl-pentanoic acid 2,2-dimethyl-propionyloxyethyl ester]

enzymatic hydrolysis after 24 h (FIG. 3) [4]: remained essentially unaltered
Compound: CCC(CC)NC(=O)CCCC[C@@H]1CCSS1 [Example 21, (R)-5-[1,2]dithiolan-3-yl-pentanoic acid pentan-3-ylamide]

enzymatic hydrolysis after 24 h (FIG. 3) [4]: remained essentially unaltered
Compound: CCCCCCCNC(=O)CCCC[C@@H]1CCSS1 [Example 20, (R)-5-[1,2]dithiolan-3-yl-pentanoic acid n-heptylamide]

enzymatic hydrolysis after 24 h (FIG. 3) [4]: remained essentially unaltered
Compound: CC1CCN(C(=O)CCCC[C@@H]2CCSS2)CC1 [Example 28, (R)-5-[1,2]dithiolan-3-yl-pentanoic acid 1-(4-methylpiperidin-1-yl)amide]

amount of (R)-alpha-lipoic acid released after 24 h (FIG. 3) [4]: reduced release | enzymatic hydrolysis after 24 h (FIG. 3) [4]: partial hydrolization
Compound: CCCCCNC(=O)CCCC[C@@H]1CCSS1 [Example 19, (R)-5-[1,2]dithiolan-3-yl-pentanoic acid n-pentylamide]

amount of (R)-alpha-lipoic acid released after 24 h (FIG. 3) [4]: reduced release | enzymatic hydrolysis after 24 h (FIG. 3) [4]: partial hydrolization
Compound: O=C(CCCC[C@@H]1CCSS1)NCCCCc1ccccc1 [Example 13, (R)-5-[1,2]dithiolan-3-yl-pentanoic acid(4-phenyl-butyl)-amide]

amount of (R)-alpha-lipoic acid released after 24 h (FIG. 3) [4]: reduced release | enzymatic hydrolysis after 24 h (FIG. 3) [4]: partial hydrolization
Compound: O=C(CCCC[C@@H]1CCSS1)NCCCc1ccccc1 [Example 12, (R)-5-[1,2]dithiolan-3-yl-pentanoic acid(3-phenyl-propyl)-amide]

melting point: 144.6 to 145.8 °C
Compound: CC(=O)NCCNC(=O)CCCCC1CCSS1 (racemic) [Example 10a, 5-[1,2]dithiolan-3-yl-pentanoic acid(2-acetylamino-ethyl)-amide]

amount of (R)-alpha-lipoic acid released after 24 h (FIG. 3) [4]: very considerable amount | enzymatic hydrolysis after 24 h (FIG. 3) [4]: not completely hydrolysed
Compound: O=C(CCCC[C@@H]1CCSS1)NCC1CC1 [Example 24, (R)-5-[1,2]dithiolan-3-yl-pentanoic acid N-(cyclopropylmethyl)amide]

amount of (R)-alpha-lipoic acid released after 24 h (FIG. 3) [4]: very considerable amount | enzymatic hydrolysis after 24 h (FIG. 3) [4]: not completely hydrolysed
Compound: COc1ccc(CNC(=O)CCCC[C@@H]2CCSS2)cc1O [Example 23, (R)-5-[1,2]dithiolan-3-yl-pentanoic acid N-(3-hydroxy-4methoxybenzyl)amide]

amount of (R)-alpha-lipoic acid released after 24 h (FIG. 3) [4]: very considerable amount | enzymatic hydrolysis after 24 h (FIG. 3) [4]: not completely hydrolysed
Compound: C=CCCNC(=O)CCCC[C@@H]1CCSS1 [Example 25, (R)-5-[1,2]dithiolan-3-yl-pentanoic acid N-(buten-3-yl)amide]

More lines, now with the values behind:

Compound: O=C(CCCCC1CCSS1)NCCCN1CCOCC1 (racemic) [Example 3a, 5-[1,2]dithiolan-3-yl-pentanoic acid(3-morpholin-4-yl-propyl)-amide]
released alpha-lipoic acid and compound itself in plasma, any withdrawal time ([1]; single dose 48.5 μmol/kg): neither released alpha-lipoic acid nor the compound itself was detected | NADH levels relative to control at 5 μM (FIG. 10) (HepG2 cells [2]): lower NADH levels than the control | effect on NADPH levels (FIG. 11) (HepG2 cells [3]): influenced NADPH levels, in a dose dependent manner

Compound: CCCCNC(=O)CCCC[C@@H]1CCSS1 [Example 2, (R)-5-[1,2]dithiolan-3-yl-pentanoic acid butylamide]
amount of (R)-alpha-lipoic acid released after 24 h (FIG. 3) [4]: very considerable amount | enzymatic hydrolysis after 24 h (FIG. 3) [4]: not completely hydrolysed | concentration of alpha-lipoic acid in plasma after 30 minutes from administration (FIG. 9) ([1]; shorter treatment intervals (5-30 minutes)): significant concentration | hydrolysis profile in vivo compared with the corresponding racemic compound (FIG. 7 vs FIG. 5) ([1]; single dose 48.5 μmol/kg): more linear hydrolysis profile

Compound: COc1ccc(CNC(=O)CCCC[C@@H]2CCSS2)cc1OC(C)=O [Example 27, (R)-5-[1,2]dithiolan-3-yl-pentanoic acid N-(3-acetoxy-4methoxybenzyl)amide]
amount of (R)-alpha-lipoic acid released after 24 h (FIG. 3) [4]: very considerable amount | enzymatic hydrolysis after 24 h (FIG. 3) [4]: not completely hydrolysed

Compound: O=C(CCCC[C@@H]1CCSS1)N1CCOCC1 [Example 1, (R)-1-morpholin-4-yl-5-[1,2]dithiolan-3-yl-pentan-1-one]
enzymatic hydrolysis after 24 h (FIG. 3) [4]: remained essentially unaltered

Compound: CC(=O)OC(C)OC(=O)CCCC[C@@H]1CCSS1 (stereo partly drawn) [Example 17, (R)-5-[1,2]dithiolan-3-yl-pentanoic acid 1-acetoxy-ethyl ester]
enzymatic hydrolysis after 1 h (FIG. 2) [4]: partial hydrolization | enzymatic hydrolysis after 3 h (FIG. 2) [4]: completely hydrolyzed

Compound: CCCC(C)NC(=O)CCCC[C@@H]1CCSS1 (stereo partly drawn) [Example 5, (R)-5-[1,2]dithiolan-3-yl-pentanoic acid(1-methyl-butyl)-amide]
enzymatic hydrolysis after 24 h (FIG. 3) [4]: remained essentially unaltered

Compound: CNC(=O)CCCC[C@@H]1CCSS1 [Example 6, (R)-5-[1,2]dithiolan-3-yl-pentanoic acid methylamide]
amount of (R)-alpha-lipoic acid released after 24 h (FIG. 3) [4]: reduced release | enzymatic hydrolysis after 24 h (FIG. 3) [4]: partial hydrolization

Compound: CC(=O)NCCNC(=O)CCCC[C@@H]1CCSS1 [Example 10, (R)-5-[1,2]dithiolan-3-yl-pentanoic acid(2-acetylamino-ethyl)-amide]
melting point: 144.6 to 145.8 °C

Compound: CCCNC(=O)CCCC[C@@H]1CCSS1 [Example 7, (R)-5-[1,2]dithiolan-3-yl-pentanoic acid propylamide]
amount of (R)-alpha-lipoic acid released after 24 h (FIG. 3) [4]: reduced release | enzymatic hydrolysis after 24 h (FIG. 3) [4]: partial hydrolization

Compound: CC(C)NC(=O)CCCC[C@@H]1CCSS1 [Example 8, (R)-5-[1,2]dithiolan-3-yl-pentanoic acid isopropylamide]
amount of (R)-alpha-lipoic acid released after 24 h (FIG. 3) [4]: reduced release | enzymatic hydrolysis after 24 h (FIG. 3) [4]: partial hydrolization | effect on NADPH levels (FIG. 11) (HepG2 cells [3]): influenced NADPH levels, in a dose dependent manner

Compound: O=C(CCCC[C@@H]1CCSS1)NCCCN1CCOCC1 [Example 3, (R)-5-[1,2]dithiolan-3-yl-pentanoic acid(3-morpholin-4-yl-propyl)-amide]
released alpha-lipoic acid and compound itself in plasma, any withdrawal time ([1]; single dose 48.5 μmol/kg): neither released alpha-lipoic acid nor the compound itself was detected
